Measurements taken from US20240076297A1, “ADENOSINE A2A AND A2B RECEPTOR DUAL ANTAGONISTS FOR IMMUNO-ONCOLOGY” (Merck Sharp & Dohme LLC, priority 2020, published 2024).
pIC50: −log10 of the molar value.

Biological target: human A2A adenosine receptor (Homo sapiens (Human), UniProt P29274)
Assay: A2A binding affinity using SPA, Method (B)
Details: [3H] SCH58261, A2A receptor-expressing membranes
Excerpt: Method (A) describes the procedure used to measure A2A binding affinity using radioligand binding. Method (B) describes the procedure used to measure A2A binding affinity using SPA technology. The method used to measure A2B binding affinity is also described below. The method used to determine the A2A IC50 value reported for each compound in the table is indicated next to the reported value. The A2B IC50 value measured using the A2B binding affinity assay is shown in the table next to the compound under the corresponding A2A value.
The A2A receptor affinity binding assay measured the amount of binding of a tritiated ligand with high affinity for the A2A adenosine receptor to membranes made from HEK293 or CHO cells recombinantly expressing the human A2A adenosine receptor, in the presence of varying concentrations of a compound of the invention. The data were generated using either filtration binding or a homogenous scintillation proximity assay (SPA).
Method (B): Measurement of A2A Binding Affinity Using SPA
Binding affinity using SPA was conducted as follows. Test compounds (50 nL) were dispensed into individual wells of a 384-well OptiPlate™ well (Perkin Elmer) by Echo® acoustic liquid transfer (Labcyte). 20 μL of 1.25 nM [^3H] SCH58261 ((7-(2-phenylethyl)-5-amino-2-(2-furyl)-pyrazolo-[4,3-e]-1,2,4-triazolo[1,5-c]pyrimidine)) in DPBS assay buffer (Dulbecco's phosphate buffered saline without calcium and magnesium, ThermoFisher Scientific, Cat. No. A1285601) supplemented with 10 mM MgCl2 was added. A2A receptor-expressing membranes were incubated with 20 μg/mL adenosine deaminase (Roche, Cat. No. 10 102 105 001) for 15 min at room temperature. The receptor-expressing membranes were then combined with wheat germ agglutinin-coated yttrium silicate SPA beads (GE Healthcare, Cat. No. RPNQ0023) in a ratio of 1:1000 (w/w) and incubated for 30 min at room temperature. 30 μL of the membrane/bead mixture (0.25 μg and 25 μg per well respectively) were added to the 384-well OptiPlate™ well. To define total and non-specific binding, wells containing 1% DMSO or 1 μM CGS15943 (Tocris Bioscience, Cat. No. 1699) respectively were also included in the experiment. The plate was incubated for 1 h at room temperature with agitation. The assay plate was then incubated for an h to allow the beads to settle before data were collected using a TopCount® (Perkin Elmer) scintillation counter. After normalization to total and non-specific binding, the percent effect at each compound concentration was calculated. The plot of percent effect versus the log of compound concentration was analyzed electronically using a 4-parameter logistic fit based on the Levenberg-Marquardt algorithm to generate IC50 values.

Sequence of human A2A adenosine receptor (P29274 whole entry): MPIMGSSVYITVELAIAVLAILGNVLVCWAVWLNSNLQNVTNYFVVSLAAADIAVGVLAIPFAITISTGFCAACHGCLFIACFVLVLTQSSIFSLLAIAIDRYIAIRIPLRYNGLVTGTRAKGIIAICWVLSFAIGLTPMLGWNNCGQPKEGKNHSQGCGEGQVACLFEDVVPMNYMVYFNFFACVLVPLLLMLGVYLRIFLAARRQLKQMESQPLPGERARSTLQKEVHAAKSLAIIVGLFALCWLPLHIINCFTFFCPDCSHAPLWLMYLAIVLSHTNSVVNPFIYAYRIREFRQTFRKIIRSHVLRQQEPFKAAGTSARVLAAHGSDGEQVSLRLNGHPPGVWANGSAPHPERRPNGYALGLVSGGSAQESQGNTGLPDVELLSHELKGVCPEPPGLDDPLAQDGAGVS

Row | Structure (SMILES) | pIC50
1 | CCC#CCOCc1nc2c3cccc(OC)c3nc(N)n2n1 [Example 4.9, 7-methoxy-2-((pent-2-yn-1-yloxy)methyl)-[1,2,4]triazolo[1,5-c]quinazolin-5-amine] | 8.21
2 | COc1cccc2c1nc(N)n1nc(COCc3c(C)ccnc3C)nc21 [Example 4.5, 2-(((2,4-dimethylpyridin-3-yl)methoxy)methyl)-7-methoxy-[1,2,4]triazolo[1,5-c]quinazolin-5-amine] | 8.06
3 | COc1cccc2c1nc(N)n1nc(COCC(F)F)nc21 [Example 4.10, 2-((2,2-difluoroethoxy)methyl)-7-methoxy-[1,2,4]triazolo[1,5-c]quinazolin-5-amine] | 8.36
